This data set has as its target Bovine serum albumin (Bos taurus, UniProt P02769). In words: Bovine Serum Albumin (BSA) assay, in-vitro protein denaturation. The format is biochemical. The note with it: for inhibition at 20 µg/mL / inhibition at 40 µg/mL / inhibition at 60 µg/mL / inhibition at 80 µg/mL / inhibition at 100 µg/mL: 72° C. for 10 minutes, turbidity at 660 nm. The method, then: Bovine Serum Albumin Assay (BSA) In vitro-inflammatory activities of the tested samples were determined using a modified method of the BSA assay reported by Williams et al. BSA solution (0.4%, w/v) was prepared in Tris Buffered Saline. The pH was adjusted to 6.4 with glacial acetic acid. Different dilutions of 20, 40, 60, 80, and 100 μg/mL of 1-cyclopropyl-7-(4-((5-(3,5-dichlorobenzylideneamino)-2-thioxo-1,3,4-thiadiazol-3(2H)-yl)methyl)piperazin-1-yl)-6-fluoro-4-oxo-1,4-dihydroquinoline-3-carboxylic acid (IV) and the stock solutions were added to test tubes containing 1 mL of 0.4%, w/v BSA buffer solution. Both negative (solvent) and positive (aspirin) controls were assayed in a similar manner. The solutions were then heated in a water bath at 72° C. for 10 minutes, and cooled for 20 minutes under laboratory conditions. The turbidity of the solutions (level of protein precipitation) was measured at 660 nm in Spectrophotometer (V-770 UV-Visible/NIR Spectrophotometer). The percentage inhibition of precipitation (protein denaturation) was determined relative to the negative control using the following equation: [formula] [formula] Anti-Inflammatory Activity

The text below walks through data of patent publication US11891385B1, “1-cyclopropyl-7-(4-((5-(3,5-dichlorobenzylideneamino)-2-thioxo-1,3,4-thiadiazol-3(2H)-yl)methyl)piperazin-1-yl)-6-fluoro-4-oxo-1,4-dihydroquinoline-3-carboxylic aci d as an anti-inflammatory compound” (KING FAISAL UNIVERSITY, priority 2023, dated 2024).

Like-named read-outs stand apart in the source and are kept apart here.

Bovine serum albumin, sequence (P02769 25-607): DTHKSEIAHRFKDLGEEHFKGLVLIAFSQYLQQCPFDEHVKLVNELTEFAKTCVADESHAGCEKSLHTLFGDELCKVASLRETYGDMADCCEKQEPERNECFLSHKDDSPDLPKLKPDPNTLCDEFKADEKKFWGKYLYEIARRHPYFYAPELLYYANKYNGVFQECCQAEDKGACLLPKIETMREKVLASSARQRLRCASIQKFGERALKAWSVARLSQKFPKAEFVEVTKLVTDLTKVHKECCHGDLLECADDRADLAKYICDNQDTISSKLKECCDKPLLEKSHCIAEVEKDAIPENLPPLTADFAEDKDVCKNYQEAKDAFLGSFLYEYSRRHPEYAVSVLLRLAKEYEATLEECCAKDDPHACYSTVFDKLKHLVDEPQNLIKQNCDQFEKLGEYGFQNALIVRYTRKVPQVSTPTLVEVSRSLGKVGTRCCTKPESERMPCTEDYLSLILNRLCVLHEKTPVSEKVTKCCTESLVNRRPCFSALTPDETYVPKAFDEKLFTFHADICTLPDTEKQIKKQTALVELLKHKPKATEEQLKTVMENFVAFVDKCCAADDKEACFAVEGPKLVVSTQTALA

As for `O=C(O)c1cn(C2CC2)c2cc(N3CCN(Cn4nc(/N=C/c5cc(Cl)cc(Cl)c5)sc4=S)CC3)c(F)cc2c1=O` [IV, 1-cyclopropyl-7-(4-((5-(3,5-dichlorobenzylideneamino)-2-thioxo-1,3,4-thiadiazol-3(2H)-yl)methyl)piperazin-1-yl)-6-fluoro-4-oxo-1,4-dihydroquinoline-3-carboxylic acid], the “in vitro anti-inflammatory activity (result in words)” value (BSA protein denaturation) is “considerable anti-inflammatory effect”. The “% Inhibition of protein denaturation (Bovine serum albumin)” value (bovine, 10 min, 100 μg/mL, pH 6.4) turned out to be 83.77%. Further, the inhibition at 20 µg/mL (read-out: % Inhibition of protein denaturation (Bovine serum albumin), concentration 20 μg/ml) turned out to be 58%. Further, the inhibition at 40 µg/mL (read-out: % Inhibition of protein denaturation (Bovine serum albumin), concentration 40 μg/ml) amounted to 68.7%. Moreover, the inhibition at 60 µg/mL (read-out: % Inhibition of protein denaturation (Bovine serum albumin), concentration 60 μg/ml) was determined as 73.2%. For the same compound, the inhibition at 80 µg/mL (read-out: % Inhibition of protein denaturation (Bovine serum albumin), concentration 80 μg/ml) worked out at 80%. Also, for the setting “read-out: % Inhibition of protein denaturation (Bovine serum albumin), concentration 100 μg/ml”, the inhibition at 100 µg/mL stood at 87.6%.

Regarding `CC(=O)Oc1ccccc1C(=O)O` [aspirin, reference compound], where the note is “concentration 20 μg/ml, read-out: % Inhibition of protein denaturation (Bovine serum albumin)”, the inhibition at 20 µg/mL turned out to be 71%. For the same compound, the inhibition at 40 µg/mL (concentration 40 μg/ml, read-out: % Inhibition of protein denaturation (Bovine serum albumin)) is 77.5%. The inhibition at 60 µg/mL (concentration 60 μg/ml, read-out: % Inhibition of protein denaturation (Bovine serum albumin)) was 82.6%. Under “concentration 80 μg/ml, read-out: % Inhibition of protein denaturation (Bovine serum albumin)”, the inhibition at 80 µg/mL is 85.5%. Moreover, under “concentration 100 μg/ml, read-out: % Inhibition of protein denaturation (Bovine serum albumin)”, the inhibition at 100 µg/mL worked out at 90.8%.
